SMILES strings stand for the structures. Some results are limits rather than exact numbers.

The results in this text go back to patent US8648066B2 (Exelixis, Inc., priority 2009, dated 2014).

In this assay the target is mTOR/GbL/Raptor (mTORC1) (Homo sapiens, UniProt P42345). The assay can be described thus: mTOR/GbL/Raptor (mTORC1) ELISA assay. Type of assay: biochemical. The note with it: phosphorylation of 4E-BP1; 0.2 nM mTORC1, 10 μM ATP; read-out: IC50 in this assay (mTORC1 ELISA). The procedure, abridged: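 Human mTORC1 (0.2 nM) phosphorylated 50 nM His-tagged 4E-BP1 with 10 µM ATP in HEPES pH 7.2 containing 10 mM MnCl2, 120 min at ambient temperature. Substrate was captured on Ni-chelate plates; phospho-4E-BP1 was detected by primary antibody and HRP secondary with luminescence.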
On the technique in general: In an ELISA, binding on a coated surface is turned into a signal by an enzyme label.
In general, IC50 refers to the point on the concentration scale where inhibition reaches its midpoint. As for `COC(=O)Nc1nc2ccc(-c3ccc4c(c3)CN(c3nc(CN(C)C)nc5c3CC(C)(C)CC5)CCO4)cc2[nH]1` [Example 579, methyl [6-(4-{2-[(dimethylamino)methyl]-6,6-dimethyl-5,6,7,8-tetrahydroquinazolin-4-yl}-2,3,4,5-tetrahydro-1,4-benzoxazepin-7-yl)-1H-benzimidazol-2-yl]carbamate], the IC50 fell in the range of 250 to 1000 nM. The figure for `COC(=O)Nc1nc2ncc(-c3ccc4c(c3)CN(c3nc(CN(C)C)nc5c3CC(C)(C)CC5)CCO4)cc2[nH]1` [Example 580] is 50 to 250 nM. As for `COC(=O)Nc1nc2ncc(-c3ccc4c(c3)CN(c3ncnc5c3CC(C)(C)CC5)CCO4)cc2[nH]1` [Example 582, methyl {6-[4-(6,6-dimethyl-5,6,7,8-tetrahydroquinazolin-4-yl)-2,3,4,5-tetrahydro-1,4-benzoxazepin-7-yl]-1H-imidazo[4,5-b]pyridin-2-yl}carbamate], the figure is not above 10 nM.

As for `COC(=O)Nc1nc2ncc(-c3ccc4c(c3)CN(c3ncnc5c3CC(C)(C)C=C5)CCO4)cc2[nH]1` [Example 583, methyl {6-[4-(6,6-dimethyl-5,6-dihydroquinazolin-4-yl)-2,3,4,5-tetrahydro-1,4-benzoxazepin-7-yl]-1H-imidazo[4,5-b]pyridin-2-yl}carbamate], the IC50 was not above 10 nM. The figure for `Cc1nc2ccc(-c3ccc4c(c3)CN(c3nc(CNC5CC5)nc(C)c3Cc3ccc(F)cc3)CCO4)cc2[nH]1` [Example 584, N-({5-[(4-fluorophenyl)methyl]-4-methyl-6-[7-(2-methyl-1H-benzimidazol-6-yl)-2,3-dihydro-1,4-benzoxazepin-4(5H)-yl]pyrimidin-2-yl}methyl)cyclopropanamine] is not above 10 nM; for `COCCNCc1nc2c(c(N3CCOc4ccc(-c5ccc6nc(C)[nH]c6c5)cc4C3)n1)CC(C)(C)CC2` [Example 585, N-({6,6-dimethyl-4-[7-(2-methyl-1H-benzimidazol-6-yl)-2,3-dihydro-1,4-benzoxazepin-4(5H)-yl]-5,6,7,8-tetrahydroquinazolin-2-yl}methyl)-2-(methyloxy)ethanamine] it is 10 to 50 nM; for `Cc1nc2ccc(-c3ccc4c(c3)CN(c3nc(CNCCF)nc5c3CC(C)(C)CC5)CCO4)cc2[nH]1` [Example 586, N-({6,6-dimethyl-4-[7-(2-methyl-1H-benzimidazol-6-yl)-2,3-dihydro-1,4-benzoxazepin-4(5H)-yl]-5,6,7,8-tetrahydroquinazolin-2-yl}methyl)-2-fluoroethanamine] it is not above 10 nM. `Cc1nc2ccc(-c3ccc4c(c3)CN(c3nc(CNC5CCC5)nc5c3CC(C)(C)CC5)CCO4)cc2[nH]1` [Example 587, N-({6,6-dimethyl-4-[7-(2-methyl-1H-benzimidazol-6-yl)-2,3-dihydro-1,4-benzoxazepin-4(5H)-yl]-5,6,7,8-tetrahydroquinazolin-2-yl}methyl)cyclobutanamine]: the IC50 is 10 to 50 nM.

With `Cc1nc2ccc(-c3ccc4c(c3)CN(c3nc(CNC5CC5)nc5c3CC(C)(C)CC5)CCO4)cc2[nH]1` [Example 588, N-({6,6-dimethyl-4-[7-(2-methyl-1H-benzimidazol-6-yl)-2,3-dihydro-1,4-benzoxazepin-4(5H)-yl]-5,6,7,8-tetrahydroquinazolin-2-yl}methyl)cyclopropanamine], the IC50 fell in the range of 10 to 50 nM. The figure for `CCNCc1nc2c(c(N3CCOc4ccc(-c5ccc6nc(C)[nH]c6c5)cc4C3)n1)CC(C)(C)CC2` [Example 589, N-({6,6-dimethyl-4-[7-(2-methyl-1H-benzimidazol-6-yl)-2,3-dihydro-1,4-benzoxazepin-4(5H)-yl]-5,6,7,8-tetrahydroquinazolin-2-yl}methyl)ethanamine] is not above 10 nM; for `COCCNCc1nc2c(c(N3CCOc4ccc(-c5cnc6nc(C)[nH]c6c5)cc4C3)n1)CC(C)(C)CC2` [Example 590, N-({6,6-dimethyl-4-[7-(2-methyl-1H-imidazo[4,5-b]pyridin-6-yl)-2,3-dihydro-1,4-benzoxazepin-4(5H)-yl]-5,6,7,8-tetrahydroquinazolin-2-yl}methyl)-2-(methyloxy)ethanamine] it is not above 10 nM; for `Cc1nc2ncc(-c3ccc4c(c3)CN(c3nc(CNCC(F)(F)F)nc5c3CC(C)(C)CC5)CCO4)cc2[nH]1` [Example 591, N-({6,6-dimethyl-4-[7-(2-methyl-1H-imidazo[4,5-b]pyridin-6-yl)-2,3-dihydro-1,4-benzoxazepin-4(5H)-yl]-5,6,7,8-tetrahydroquinazolin-2-yl}methyl)-2,2,2-trifluoroethanamine] it is 10 to 50 nM. As for `Cc1nc2ncc(-c3ccc4c(c3)CN(c3nc(CNCC(F)F)nc5c3CC(C)(C)CC5)CCO4)cc2[nH]1` [Example 592, N-({6,6-dimethyl-4-[7-(2-methyl-1H-imidazo[4,5-b]pyridin-6-yl)-2,3-dihydro-1,4-benzoxazepin-4(5H)-yl]-5,6,7,8-tetrahydroquinazolin-2-yl}methyl)-2,2-difluoroethanamine], the figure is not above 10 nM; as for `Cc1nc2ncc(-c3ccc4c(c3)CN(c3nc(CNCCF)nc5c3CC(C)(C)CC5)CCO4)cc2[nH]1` [Example 593, N-({6,6-dimethyl-4-[7-(2-methyl-1H-imidazo[4,5-b]pyridin-6-yl)-2,3-dihydro-1,4-benzoxazepin-4(5H)-yl]-5,6,7,8-tetrahydroquinazolin-2-yl}methyl)-2-fluoroethanamine], not above 10 nM; as for `Cc1nc2ncc(-c3ccc4c(c3)CN(c3nc(CNCC(C)C)nc5c3CC(C)(C)CC5)CCO4)cc2[nH]1` [Example 594, N-({6,6-dimethyl-4-[7-(2-methyl-1H-imidazo[4,5-b]pyridin-6-yl)-2,3-dihydro-1,4-benzoxazepin-4(5H)-yl]-5,6,7,8-tetrahydroquinazolin-2-yl}methyl)-2-methylpropan-1-amine], 10 to 50 nM.

For the molecule `Cc1nc2ncc(-c3ccc4c(c3)CN(c3nc(CNC(C)(C)C)nc5c3CC(C)(C)CC5)CCO4)cc2[nH]1` [Example 595, N-({6,6-dimethyl-4-[7-(2-methyl-1H-imidazo[4,5-b]pyridin-6-yl)-2,3-dihydro-1,4-benzoxazepin-4(5H)-yl]-5,6,7,8-tetrahydroquinazolin-2-yl}methyl)-2-methylpropan-2-amine], the IC50 was 10 to 50 nM. The figure for `Cc1nc2ncc(-c3ccc4c(c3)CN(c3nc(CN[C@@H](C)C(=O)O)nc5c3CC(C)(C)CC5)CCO4)cc2[nH]1` [Example 596, N-({6,6-dimethyl-4-[7-(2-methyl-1H-imidazo[4,5-b]pyridin-6-yl)-2,3-dihydro-1,4-benzoxazepin-4(5H)-yl]-5,6,7,8-tetrahydroquinazolin-2-yl}methyl)alanine] is not above 10 nM; for `Cc1nc2ncc(-c3ccc4c(c3)CN(c3nc(CNC5CCC5)nc5c3CC(C)(C)CC5)CCO4)cc2[nH]1` [Example 597, N-({6,6-dimethyl-4-[7-(2-methyl-1H-imidazo[4,5-b]pyridin-6-yl)-2,3-dihydro-1,4-benzoxazepin-4(5H)-yl]-5,6,7,8-tetrahydroquinazolin-2-yl}methyl)cyclobutanamine] it is not above 10 nM. The figure for `Cc1nc2ncc(-c3ccc4c(c3)CN(c3nc(CNC5CCCC5)nc5c3CC(C)(C)CC5)CCO4)cc2[nH]1` [Example 598, N-({6,6-dimethyl-4-[7-(2-methyl-1H-imidazo[4,5-b]pyridin-6-yl)-2,3-dihydro-1,4-benzoxazepin-4(5H)-yl]-5,6,7,8-tetrahydroquinazolin-2-yl}methyl)cyclopentanamine] is not above 10 nM.

Take `Cc1nc2ncc(-c3ccc4c(c3)CN(c3nc(CNC5CC5)nc5c3CC(C)(C)CC5)CCO4)cc2[nH]1` [Example 599, N-({6,6-dimethyl-4-[7-(2-methyl-1H-imidazo[4,5-b]pyridin-6-yl)-2,3-dihydro-1,4-benzoxazepin-4(5H)-yl]-5,6,7,8-tetrahydroquinazolin-2-yl}methyl)cyclopropanamine]: the IC50 was not above 10 nM. As for `CCNCc1nc2c(c(N3CCOc4ccc(-c5cnc6nc(C)[nH]c6c5)cc4C3)n1)CC(C)(C)CC2` [Example 600, N-({6,6-dimethyl-4-[7-(2-methyl-1H-imidazo[4,5-b]pyridin-6-yl)-2,3-dihydro-1,4-benzoxazepin-4(5H)-yl]-5,6,7,8-tetrahydroquinazolin-2-yl}methyl)ethanamine], the figure is not above 10 nM. As to `Cc1nc2ncc(-c3ccc4c(c3)CN(c3nc(CNS(C)(=O)=O)nc5c3CC(C)(C)CC5)CCO4)cc2[nH]1` [Example 601, N-({6,6-dimethyl-4-[7-(2-methyl-1H-imidazo[4,5-b]pyridin-6-yl)-2,3-dihydro-1,4-benzoxazepin-4(5H)-yl]-5,6,7,8-tetrahydroquinazolin-2-yl)methyl)methanesulfonamide], the IC50 is not above 10 nM.

As for `CCN(CC)Cc1nc2c(c(N3CCOc4ccc(-c5cnc6nc(C)[nH]c6c5)cc4C3)n1)CC(C)(C)CC2` [Example 602, N-({6,6-dimethyl-4-[7-(2-methyl-1H-imidazo[4,5-b]pyridin-6-yl)-2,3-dihydro-1,4-benzoxazepin-4(5H)-yl]-5,6,7,8-tetrahydroquinazolin-2-yl}methyl)-N-ethylethanamine], the IC50 lay within 10 to 50 nM. With `CCN(Cc1nc2c(c(N3CCOc4ccc(-c5cnc6nc(C)[nH]c6c5)cc4C3)n1)CC(C)(C)CC2)C(C)C` [Example 603, N-({6,6-dimethyl-4-[7-(2-methyl-1H-imidazo[4,5-b]pyridin-6-yl)-2,3-dihydro-1,4-benzoxazepin-4(5H)-yl]-5,6,7,8-tetrahydroquinazolin-2-yl}methyl)-N-ethylpropan-2-amine], the IC50 lay in the range of 50 to 250 nM. The figure for `Cc1nc2ncc(-c3ccc4c(c3)CN(c3nc(CN(C)C5CC5)nc5c3CC(C)(C)CC5)CCO4)cc2[nH]1` [Example 604, N-({6,6-dimethyl-4-[7-(2-methyl-1H-imidazo[4,5-b]pyridin-6-yl)-2,3-dihydro-1,4-benzoxazepin-4(5H)-yl]-5,6,7,8-tetrahydroquinazolin-2-yl}methyl)-N-methylcyclopropanamaine] is 10 to 50 nM.
